Assay results as given in patent US12594267B2, “Capsid inhibitors for the treatment of HIV” (Gilead Sciences, Inc., priority 2018, dated 2026).
Read-outs that look alike come from different tables or passages of the source.

Columns and labels:
WT LAI = assay: microbe, parasite or virus in culture; assay type: cell-based, HIV-1; conditions: Human immunodeficiency virus 1, MT2, read-out: WT LAI EC50
Protocol: (§1) The antiviral activity of the compound of Formula (a) was tested against a panel of known HIV-1 mutants resistant to HIV PIs (ATV and DRV), NRTIs (TFV and FTC), NNRTIs (RPV and EFV) or INSTIs (RAL, EVG and DTG) using a cytopathic antiviral assay in MT-2 cells.

WT HXB2D = assay: Cytopathic antiviral assay in MT-2 cells, wild type HXB2D; assay type: cell-based, HIV-1; conditions: mean ± s.d. of three experiments in triplicate
Protocol: (§2) The antiviral activity of the compound of Formula (a) was tested against a panel of known HIV-1 mutants resistant to HIV PIs (ATV and DRV), NRTIs (TFV and FTC), NNRTIs (RPV and EFV) or INSTIs (RAL, EVG and DTG) using a cytopathic antiviral assay in MT-2 cells. The compound of Formula (Ia) was fully active against all tested mutants resistant to PIs (Table 11), NRTIs (Table 12), NNRTIs (Table 13) or INSTIs (Table 14).

NRTI-resistant viruses = assay type: cell-based, HIV-1; conditions: MT-2 cells; for EC50 Fold-Change: Mutant/WT (LAI) EC50 ratio, mean ± s.d. of three experiments
Protocol: as §1

[1] = PK after oral administration in liquid-filled capsules in dogs; assay type: in vivo, beagle dogs; conditions: for bioavailability: oral, calculated based on AUC0-72h vs average IV AUC0-72h
Protocol: A single dose of the compound of Formula (Ia), formulated as liquid-filled capsules (LFC) containing either 100% glycerol monocaprylocaprate or 20% caprylocaproyl polyoxyl-8 glycerides and 80% glycerol monocaprylocaprate was administered orally at 7.5 mg fixed dose to 6 male beagle dogs (Table 9). At 100 mg/mL of the compound of Formula (Ia), the AUCinf increased with increasing glycerol monocaprylocaprate content. For the formulation with 100% glycerol monocaprylocaprate, the AUCinf at 50 mg/mL was higher than that at 100 mg/mL.
A single dose of the compound of Formula (Ia), formulated as liquid-filled capsules (LFC) containing 100% glycerol monocaprylocaprate, was administered orally at 7.5 mg fixed dose to 6 beagle dogs (Table S) and the pharmacokinetic (PK) profile was determined. […] Plasma concentrations of the compound of Formula (Ia) were maintained above the target trough concentration of 20 nM for at least 72 hours (3 days).

PI-resistant viruses = assay: Cytopathic antiviral assay in MT-2 cells, PI-resistant viruses; assay type: cell-based, HIV-1; conditions: for EC50 Fold-Change: Mutant/WT (HXB2D) EC50 ratio, mean ± s.d. of three experiments
Protocol: as §2

HIV-1 clinical isolates = assay: Antiviral activity against HIV-1 clinical isolates in PHA-stimulated human PBMCs; assay type: cell-based; conditions: 168 h, 7-day infection, RT activity readout, mean of triplicate
Protocol: The antiretroviral activity of the compound of Formula (Ia) was tested against a panel of 22 HIV-1 clinical isolates of HIV-1 and two HIV-2 isolates in freshly isolated, PHA-stimulated human peripheral blood mononuclear cells (PBMCs). The HIV-1 isolates included representative strains from subtypes A, B, C, D, E, F, G, N, O, AE, and AG. Following a 7-day infection, virus production was determined by measuring reverse transcriptase activity in cell-free culture supernatants.

[2] = dog, plasma, fasted, pentagastrin-pretreated male beagle dogs, oral LFC 7.5 mg fixed dose, 20% caprylocaproyl polyoxyl-8 glycerides and 80% glycerol monocaprylocaprate, 100 mg/mL, mean ± SD, n=6
[3] = male, beagle, dog, plasma, po, 7.5 mg, fasted, pentagastrin-pretreated male beagle dogs, oral LFC 7.5 mg fixed dose, 100% glycerol monocaprylocaprate, 50 mg/mL, mean ± SD, n=6
[4] = male, beagle, dog, plasma, po, 7.5 mg, fasted, pentagastrin-pretreated male beagle dogs, oral LFC 7.5 mg fixed dose, 100% glycerol monocaprylocaprate, 100 mg/mL, mean ± SD, n=6

Question: For CC(C)(C#Cc1ccc(-c2ccc(Cl)c3c(NS(C)(=O)=O)nn(CC(F)(F)F)c23)c([C@H](Cc2cc(F)cc(F)c2)NC(=O)Cn2nc(C(F)(F)F)c3c2C(F)(F)[C@@H]2C[C@H]32)n1)S(C)(=O)=O [Formula (Ia), N—((S)-1-(3-(4-chloro-3-(methylsulfonamido)-1-(2,2,2-trifluoroethyl)-1H-indazol-7-yl)-6-(3-methyl-3-(methylsulfonyl)but-1-yn-1-yl)pyridin-2-yl)-2-(3,5-difluorophenyl)ethyl)-2-((3bS,4aR)-5,5-difluoro-3-(trifluoromethyl)-3b,4,4a,5-tetrahydro-1H-cyclopropa[3,4]cyclopenta[1,2-c]pyrazol-1-yl)acetamide], which EC50 (WT LAI) is on record?
Answer: 0.14 ± 0.03 nM

Question: And the EC50 (WT HXB2D; Human immunodeficiency virus 1, MT2, read-out: WT HXB2D EC50, MT-2 cells, INSTI-resistance panel (Table 14))?
Answer: 0.13 ± 0.03 nM

Question: What about the EC50 (WT HXB2D; Human immunodeficiency virus 1, MT2, read-out: WT HXB2D EC50, MT-2 cells, NNRTI-resistance panel (Table 13)) of the same compound?
Answer: 0.18 ± 0.02 nM

Question: What about the EC50 (WT HXB2D; MT-2 cells, PI-resistance panel (Table 11), read-out: WT HXB2D EC50) of the same compound?
Answer: 0.24 ± 0.14 nM

Question: What about the “EC50 Fold-Change” value (NRTI-resistant viruses; 6TAMs) of the same compound?
Answer: 0.4 ± 0.2

Question: And the “EC50 Fold-Change” value (NRTI-resistant viruses; K65R)?
Answer: 0.7 ± 0.2

Question: And the “EC50 Fold-Change” value (NRTI-resistant viruses; M184V)?
Answer: 0.5 ± 0.3

Question: And the “activity against all tested mutants, in words” value (NRTI-resistant viruses; mutants resistant to NRTIs)?
Answer: fully active

Question: What about the “Time plasma concentrations maintained above the target trough concentration of 20 nM” value ([1]; beagle dogs, oral liquid-filled capsules, 100% glycerol monocaprylocaprate, 7.5 mg fixed dose) of the same compound?
Answer: at least 72 hours

Question: What about the Tmax ([1]; beagle, dog, plasma, po, 7.5 mg, beagle dogs, oral liquid-filled capsules, 100% glycerol monocaprylocaprate, 7.5 mg fixed dose, 50 mg/mL (Table S), mean ± SD, n=6) of the same compound?
Answer: 11 ± 10.1 h

Question: And the AUC(0-t) ([1]; beagle, dog, plasma, po, 7.5 mg, beagle dogs, oral liquid-filled capsules, 100% glycerol monocaprylocaprate, 7.5 mg fixed dose, 50 mg/mL (Table S), mean ± SD, n=6, read-out: AUC0-72h)?
Answer: 5.07 ± 4.65 µM·h

Question: And the AUC(0-t) ([1]; beagle, dog, plasma, po, 7.5 mg, beagle dogs, oral liquid-filled capsules, 100% glycerol monocaprylocaprate, 7.5 mg fixed dose, 50 mg/mL (Table S), mean ± SD, n=6, read-out: AUC0-14d)?
Answer: 108 ± 16 µM·h

Question: What about the concentration at 72 h ([1]; dog, plasma, beagle dogs, oral liquid-filled capsules, 100% glycerol monocaprylocaprate, 7.5 mg fixed dose, 50 mg/mL (Table S), mean ± SD, n=6, read-out: C72h) of the same compound?
Answer: 20.1 ± 24.4 nM

Question: And the AUC(0-inf) [1, 2]?
Answer: 1.3 ± 0.634 µM·h

Question: And the Cmax [1, 2]?
Answer: 53.2 ± 16.7 nM

Question: And the Tmax [1, 2]?
Answer: 7.7 ± 8 h

Question: What about the AUC(0-t) ([1]; dog, plasma, fasted, pentagastrin-pretreated male beagle dogs, oral LFC 7.5 mg fixed dose, 20% caprylocaproyl polyoxyl-8 glycerides and 80% glycerol monocaprylocaprate, 100 mg/mL, mean ± SD, n=6, read-out: AUC0-72h) of the same compound?
Answer: 1.18 ± 0.575 µM·h

Question: And the bioavailability ([1]; male, beagle, dog, plasma, 7.5 mg, as above (20%/80% LFC, 100 mg/mL), mean ± SD, n=6)?
Answer: 11 ± 4%

Question: And the bioavailability ([1]; male, beagle, dog, plasma, 7.5 mg, as above (100% glycerol monocaprylocaprate LFC, 50 mg/mL), mean ± SD, n=6)?
Answer: 22 ± 10%

Question: And the bioavailability ([1]; male, beagle, dog, plasma, 7.5 mg, as above (100% glycerol monocaprylocaprate LFC, 100 mg/mL), mean ± SD, n=6)?
Answer: 16 ± 9%

Question: And the AUC(0-inf) [1, 3]?
Answer: 2.33 ± 1.35 µM·h

Question: What about the Cmax [1, 3] of the same compound?
Answer: 82.7 ± 32.1 nM

Question: And the Tmax [1, 3]?
Answer: 4 h

Question: And the AUC(0-t) ([1]; male, beagle, dog, plasma, po, 7.5 mg, fasted, pentagastrin-pretreated male beagle dogs, oral LFC 7.5 mg fixed dose, 100% glycerol monocaprylocaprate, 50 mg/mL, mean ± SD, n=6, read-out: AUC0-72h)?
Answer: 2.18 ± 1.24 µM·h

Question: What about the AUC(0-inf) [1, 4] of the same compound?
Answer: 1.87 ± 1.19 µM·h

Question: And the Cmax [1, 4]?
Answer: 71.2 ± 25.8 nM

Question: And the Tmax [1, 4]?
Answer: 5 ± 1.1 h

Question: What about the AUC(0-t) ([1]; male, beagle, dog, plasma, po, 7.5 mg, fasted, pentagastrin-pretreated male beagle dogs, oral LFC 7.5 mg fixed dose, 100% glycerol monocaprylocaprate, 100 mg/mL, mean ± SD, n=6, read-out: AUC0-72h) of the same compound?
Answer: 1.67 ± 1.04 µM·h

Question: And the “EC50 Fold-Change” value (PI-resistant viruses; G48V/V82A/L90M)?
Answer: 0.4 ± 0.2

Question: What about the “EC50 Fold-Change” value (PI-resistant viruses; G48V/V82S) of the same compound?
Answer: 0.4 ± 0.1

Question: And the “EC50 Fold-Change” value (PI-resistant viruses; I50V)?
Answer: 0.6 ± 0.2

Question: And the “EC50 Fold-Change” value (PI-resistant viruses; I84V/L90M)?
Answer: 0.3 ± 0.1

Question: What about the “activity against all tested mutants, in words” value (PI-resistant viruses; mutants resistant to PIs) of the same compound?
Answer: fully active

Question: What about the EC50 (HIV-1 clinical isolates; Human immunodeficiency virus 1, BAL, PBMC, read-out: EC50 in human PBMCs, HIV-1 subtype B isolate Ba-L) of the same compound?
Answer: 0.04 nM

Question: What about the EC50 (HIV-1 clinical isolates; Human immunodeficiency virus 1, PBMC, read-out: EC50 in human PBMCs, HIV-1 CRF01_AE isolate 90TH_CM235) of the same compound?
Answer: 0.04 nM
